From BindingDB's records for doi:10.1021/acs.jmedchem.0c00807 (University of Oxford, 2020)

experiment: Modulation of human utrophinA expressed in mouse H2K cells assessed as upregulation of utrophin production after 24 hrs by luciferase reporter gene assay

Row | SMILES | EC50
1 | CC(=O)Nc1ccc2oc(-c3ccc4ccccc4c3)nc2c1 | 10 nM
2 | CC(C)C(=O)Nc1ccc2oc(-c3ccc4ccccc4c3)nc2c1 | 38 nM
3 | O=S1(=O)CCCN1c1ccc2oc(-c3ccc4ccccc4c3)nc2c1 | 110 nM
4 | CNS(=O)(=O)c1ccc2oc(-c3ccc4ccccc4c3)nc2c1 | 146 nM
5 | CCOP(=O)(CC)c1ccc2oc(-c3ccc4ccccc4c3)nc2c1 (stereo not given) | 26 nM
6 | COP(=O)(c1ccc2oc(-c3ccc4ccccc4c3)nc2c1)C(C)C (stereo not given) | 34 nM
7 | COP(=O)(c1ccc2nc(-c3ccc4ccccc4c3)oc2c1)C(C)C (stereo not given) | 234 nM
8 | COP(=O)(c1ccc2oc(-c3ccc4ccccc4c3)nc2c1)C(C)(C)C (stereo not given) | 148 nM
9 | CCP(=O)(OC)c1ccc2oc(/C=C/c3ccccc3)nc2c1 (stereo not given) | 163 nM
10 | CCP(=O)(OC)c1ccc2oc(-c3ccc(Cl)cc3)nc2c1 (stereo not given) | 112 nM
11 | CCP(=O)(OC)c1ccc2oc(-c3cccc(F)c3)nc2c1 (stereo not given) | 823 nM
12 | CCP(=O)(OC)c1ccc2oc(-c3ccc(C(F)(F)F)cc3)nc2c1 (stereo not given) | 548 nM
13 | CCP(=O)(OC)c1ccc2oc(-c3ccccc3C(F)(F)F)nc2c1 (stereo not given) | 861 nM
14 | CCP(=O)(OC)c1ccc2oc(-c3ccc(F)cc3F)nc2c1 (stereo not given) | 777 nM
15 | CCP(=O)(OC)c1ccc2oc(-c3cccc(Cl)c3F)nc2c1 (stereo not given) | 198 nM
16 | CCP(=O)(OC)c1ccc2oc(-c3ccc(Cl)c(Cl)c3)nc2c1 (stereo not given) | 118 nM
17 | CCP(=O)(OC)c1ccc2oc(-c3cccc(Cl)c3Cl)nc2c1 (stereo not given) | 244 nM
18 | CCP(=O)(OC)c1ccc2oc(-c3c(F)ccc(Cl)c3F)nc2c1 (stereo not given) | 1770 nM
19 | CCP(=O)(OC)c1ccc2oc(-c3ccc(Cl)s3)nc2c1 (stereo not given) | 168 nM
20 | CCP(=O)(OC)c1ccc2oc(-c3sccc3Cl)nc2c1 (stereo not given) | 1510 nM
21 | CCP(=O)(OC)c1ccc2oc(-c3ccc(C(F)(F)F)o3)nc2c1 (stereo not given) | 1770 nM
22 | CCP(=O)(OC)c1ccc2nc(/C=C/c3ccccc3)oc2c1 (stereo not given) | 766 nM
23 | CCP(=O)(OC)c1ccc2nc(-c3ccc(F)cc3F)oc2c1 (stereo not given) | 1760 nM
24 | CCP(=O)(OC)c1ccc2nc(-c3cccc(Cl)c3Cl)oc2c1 (stereo not given) | 1950 nM
25 | COP(=O)(c1ccc2oc(-c3ccc(F)cc3)nc2c1)C(C)C (stereo not given) | 303 nM
26 | COP(=O)(c1ccccc1)c1ccc2oc(-c3ccc(F)cc3)nc2c1 (stereo not given) | 826 nM
27 | CCOP(=O)(CC)c1ccc2oc(-c3ccc(F)cc3)nc2c1 (stereo not given) | 1250 nM
28 | COP(=O)(c1ccc2nc(-c3ccc(F)cc3)oc2c1)C(C)C (stereo not given) | 1510 nM
29 | CCP(=O)(OC)c1cccc2oc(-c3ccc(F)cc3)nc12 (stereo not given) | 1190 nM
30 | CCS(=O)(=O)c1ccc2oc(-c3ccc4ccccc4c3)nc2c1 [BMN 195] | 187 nM

Next, values leading:

Row | EC50 | SMILES
31 | 4 nM | CCP(=O)(OC)c1ccc2oc(-c3ccc4ccccc4c3)nc2c1 (stereo not given)
32 | 71 nM | CCP(=O)(OC)c1ccc2nc(-c3ccc4ccccc4c3)oc2c1 (stereo not given)
33 | 108 nM | CCOP(=O)(CC)c1ccc2nc(-c3ccc4ccccc4c3)oc2c1 (stereo not given)
34 | 62 nM | CCP(=O)(OC)c1ccc2oc(-c3cnc4ccccc4c3)nc2c1 (stereo not given)
35 | 164 nM | CCP(=O)(OC)c1ccc2oc(-c3ccc4ncccc4c3)nc2c1 (stereo not given)
36 | 157 nM | CCP(=O)(OC)c1ccc2oc(-c3ccc4cccnc4c3)nc2c1 (stereo not given)
37 | 332 nM | CCP(=O)(OC)c1ccc2oc(-c3ccc4ccncc4c3)nc2c1 (stereo not given)
38 | 1140 nM | CCP(=O)(OC)c1ccc2oc(-c3ccc4cnccc4c3)nc2c1 (stereo not given)
39 | 71 nM | CCP(=O)(OC)c1ccc2nc(-c3cnc4ccccc4c3)oc2c1 (stereo not given)
40 | 85 nM | CCP(=O)(OC)c1ccc2nc(-c3ccc4ncccc4c3)oc2c1 (stereo not given)
41 | 928 nM | CCP(=O)(OC)c1ccc2nc(-c3ccc4cccnc4c3)oc2c1 (stereo not given)
42 | 1140 nM | CCP(=O)(OC)c1ccc2nc(-c3ccc4ccncc4c3)oc2c1 (stereo not given)
43 | 1760 nM | CCP(=O)(OC)c1ccc2nc(-c3ccc4cnccc4c3)oc2c1 (stereo not given)
44 | 1230 nM | CCP(=O)(OC)c1ccc2nc(-c3ccc(F)cc3)oc2c1 (stereo not given)
45 | 2250 nM | CCP(=O)(OC)c1ccc2nc(-c3cccc(F)c3)oc2c1 (stereo not given)
